Results from patent publication US8420309B2, “Method of screening compounds using CALHM (FAM26C)” (The Feinstein for Medical Research, priority 2007, dated 2013).

Tested on: CALHM1
Experiment: CALHM1 N-glycosylation, western blot of transfected HEK293 cells
Assay type: cell-based, human
Settings: HEK293 cells transfected with Myc-CALHM1 for six hours, 10 μg/ml tunicamycin, anti-Myc WB
Method: Western blotting (WB) and immunoprecipitation (IP) assays. For WB, cells were washed with PBS and solubilized in ice-cold HEPES buffer (25 mM HEPES, pH 7.4, 150 mM NaCl, 1X Complete protease inhibitor cocktail, Roche) containing 1% SDS. Ten micrograms of extracts was analyzed by SDS-PAGE. A standard ECL detection procedure was then used. For multimerization analyses and IP, cells were harvested six hours after transfection with the indicated CALHM1 cDNAs. Cells were then solubilized for 2 h at 4° C. in HEPES buffer containing 1% Nonidet P-40. Cell extracts were pre-cleared by centrifugation at 10,000 rpm for 5 min. For multimerization analyses, cell extracts were analyzed by WB in the absence (non-reducing conditions) or presence of 5% β-mercaptoethanol (reducing conditions). For IP, supernatants were immunoprecipitated with immobilized anti-Myc antibody, as per supplier's instructions (ProFound Mammalian c-Myc Tag IP Kit, Pierce). Total extracts and immunoprecipitated proteins were then analyzed by WB.
CALHM1 deglycosylation. […] CALHM1-transfected HT-22 cells were solubilized and incubated for 16 h at 37° C. in digestion buffer (50 mM NaH2PO4, pH 7.4, 20 mM EDTA, 0.2% SDS, and 1% β-mercaptoethanol) in the absence or presence of PNGase F. Cell lysates were then analyzed by WB using anti-Myc antibody, as described above.

Q: How did the “appearance of the CALHM1 band of higher molecular weight (N-glycosylated form)” value turn out when tunicamycin was run?
A: Its value is “completely inhibited”.
